Measured values taken from US8153633B2, “Phthalazine compounds, compositions and methods of use” (Amgen Inc., priority 2007, dated 2012).

Tests used:
[1] = test system: Gli1 expression (Smoothened signaling); assay: Gli1 expression in mouse skin after depilation and oral compound dosing (quantitative PCR relative to RGS); type: in vivo; details: five days after depilation, six hours after administration
Description: Paladini et al. (2005) J Invest Dermatol 125:638-646. For this work, the mice were deplilated using wax strips (Sally Hansen, Del Laboratories, Inc, Uniondale, N.Y.). Five days after depilation, mice were dosed orally with compound or vehicle. Six hours after compound administration, animals were euthanized and skin samples were collected. RNA was purified from the skin samples using a mirVana miRNA Isolation kit (Ambion, Austin, Tex.). cDNA was prepared from the RNA, and Gli1 expression levels were determined by real-time, quantitative PCR relative to the RGS reference gene.

[2] = test system: medulloblastomas from Ptch+/−p53−/− mice; assay: Mouse medulloblastoma allograft model, antitumor activity in vivo; details: 10 mg/kg, one dose per day, after 6 days of treatment; tumors of average size 200 mm^3 at start
Description: Briefly, medulloblastomas from Ptch+/−p53−/− mice were subcutaneously implanted into immunocompromised mice, and subsequent passages of these tumor allografts were used for compound testing. For compound studies, animals bearing tumors with an average size of 200 mm^3 were treated with vehicle or 10 mg/kg compound 23 on a schedule of one dose per day for a total of 6 days.

SMILES | [Gli1/RGS ratio compound]/[Gli1/RGS ratio vehicle] ([1]; 100 mg/kg oral) | [Gli1/RGS ratio compound]/[Gli1/RGS ratio vehicle] ([1]; 50 mg/kg oral) | reduction in tumor size relative to vehicle control [2]
C[C@H]1CN(c2nnc(-c3ccccc3)c3ccccc23)CCN1C(=O)c1ccccc1 [Compound 5, (S)-(2-methyl-4-(4-phenylphthalazin-1-yl)piperazin-1-yl)(phenyl)-methanone] | 0.41 | – | –
C[C@@H]1CN(C(=O)c2ccccc2)CCN1c1nnc(-c2ccc(C(F)(F)F)cc2)c2ccccc12 [Compound 23, (R)-(3-methyl-4-(4-(4-(trifluoromethyl)-phenyl)-phthalazin-1-yl)piperazin-1-yl)(phenyl)-methanone] | – | 0.33 | > 99%
